This note sets out measurements from ChEMBL document CHEMBL5331084, “Structure-based lead optimization of peptide-based vinyl methyl ketones as SARS-CoV-2 main protease inhibitors” (Eur J Med Chem, 2023).

The source made the active and inactive calls. The rule behind the calls is not given here.

In data set [1] the target is Replicase polyprotein 1ab (Severe acute respiratory syndrome coronavirus 2, UniProt P0DTD1). As to the kind of experiment: Inhibition of SARS-CoV-2 MPro using Dabcyl-KTSAVLQSGFRKME-Edans as substrate assessed as inhibition constant measured for 10 mins by FRET assay.
For data set [2], the target named is T1, Procathepsin L (Homo sapiens, UniProt P07711). As to the kind of experiment: Inhibition of human Cathepsin L using Cbz-Phe-Arg-AMC as substrate assessed as inhibition constant measured for 10 mins by fluorescence assay.
Target sequence in this assay (P07711 whole entry): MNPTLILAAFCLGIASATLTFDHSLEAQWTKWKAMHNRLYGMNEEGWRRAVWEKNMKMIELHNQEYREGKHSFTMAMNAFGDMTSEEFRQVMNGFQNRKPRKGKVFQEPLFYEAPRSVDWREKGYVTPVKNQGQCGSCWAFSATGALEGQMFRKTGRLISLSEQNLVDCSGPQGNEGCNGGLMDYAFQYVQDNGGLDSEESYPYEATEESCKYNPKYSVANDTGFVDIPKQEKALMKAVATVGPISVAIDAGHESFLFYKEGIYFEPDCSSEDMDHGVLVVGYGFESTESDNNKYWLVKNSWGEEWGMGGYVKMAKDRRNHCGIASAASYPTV
A further data set has as its target Cathepsin B (Homo sapiens, UniProt P07858). As to the kind of experiment: Inhibition of human Cathepsin B using Cbz-Phe-Arg-7-amino-4-methylcoumarin as substrate assessed as inhibition constant measured for 10 mins by fluorescence assay.
The target in data set [3] is Genome polyprotein (dengue virus type 2) (UniProt P29990). As to the kind of experiment: Inhibition of Dengue virus NS2B-NS3 protease Boc-GRR-AMC as substrate at 100 uM measured for 10 mins by fluorescence assay.
Data set [4] addresses Replicase polyprotein 1ab (Severe acute respiratory syndrome coronavirus 2) (UniProt P0DTD1). Briefly: Covalent irreversible inhibition of SARS-CoV-2 MPro using Dabcyl-KTSAVLQSGFRKME-Edans as substrate assessed as reduction in enzyme recovery at 5 fold IC50 preincubated for 60 mins followed by dilution to 1 fold IC50 and substrate addition by fluorescence based assay.
The next data set concerns Huh-7. It is filed as toxicity, cell-based. The note with it: human, huh-7, 24 h.
Data set [5] concerns the target T1, Procathepsin L. As to the kind of experiment: Covalent irreversible inhibition of human Cathepsin L using Cbz-Phe-Arg-AMC as substrate assessed as reduction in enzyme recovery at 5 fold IC50 preincubated for 60 mins followed by dilution to 1 fold IC50 and substrate addition by fluorescence based assay.
Target sequence in this assay (P07711 114-333 limits assumed): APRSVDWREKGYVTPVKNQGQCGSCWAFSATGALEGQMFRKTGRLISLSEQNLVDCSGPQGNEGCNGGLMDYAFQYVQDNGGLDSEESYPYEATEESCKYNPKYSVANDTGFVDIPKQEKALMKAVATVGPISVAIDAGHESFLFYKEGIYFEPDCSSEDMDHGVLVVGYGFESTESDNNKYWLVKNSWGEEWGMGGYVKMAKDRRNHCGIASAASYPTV
For data set [6], the target named is Replicase polyprotein 1ab (Severe acute respiratory syndrome coronavirus 2) (UniProt P0DTD1). Briefly: Inhibition of SARS-CoV-2 PLpro using Z-RLRGG-AMC acetate as substrate at 100 uM measured for 10 mins by fluorescence assay.
Data set [7] has the same target. As to the kind of experiment: Covalent irreversible inhibition of SARS-CoV-2 MPro using Dabcyl-KTSAVLQSGFRKME-Edans as substrate assessed as reduction in enzyme recovery at 10 fold IC50 preincubated for 60 mins followed by dialysis for 25 hrs further incubated with substrate and measured over 10 mins by fluorescence based assay. The note with it: time 1570.0 min.

What is called Ki is the equilibrium dissociation constant of an inhibitor or competing ligand from its target. A word on the CC50: it is the concentration that lowers cell viability or growth by half. Lower therefore signals greater toxicity to the cells. On to `CCCC[C@H](NC(=O)OCc1ccccc1)C(=O)N[C@H](/C=C/C(C)=O)C[C@@H]1CCNC1=O`, for which the Ki turned out to be 260 nM in data set [1], 1920 nM on Procathepsin L [2] and 11100 nM at Cathepsin B. Also, the inhibition result in data set [3] and in [6] was “inactive” in each case. Moreover, the inhibition entry (in data set [4]; on Procathepsin L [5]) was “Active” in each case. In the data set on Huh-7, this compound came in with a CC50 of 60900 nM.
As for `CC(=O)/C=C/[C@H](C[C@@H]1CCNC1=O)NC(=O)[C@H](CC1CC1)NC(=O)OCc1ccccc1`, the results for the Ki (in [1]; on Procathepsin L [2]; on Cathepsin B) were 252 nM, 3380 nM and 7880 nM, respectively. Besides, the inhibition result (in [7]; in data set [4]; on Procathepsin L [5]) was “Active” in each case. Further, the inhibition entry in data set [3] and in [6] was “inactive” in each case. The CC50 with Huh-7 is 100000 nM.
As to `CCC[C@H](NC(=O)OCc1ccccc1)C(=O)N[C@H](/C=C/C(C)=O)C[C@@H]1CCNC1=O`, the inhibition constant (Ki) in data set [1] worked out at 1770 nM.
For the compound `CC(=O)/C=C/[C@H](C[C@@H]1CCNC1=O)NC(=O)[C@H](CC(C)C)NC(=O)OCc1ccccc1`, the Ki in data set [1] worked out at 386 nM.
For `CC(=O)/C=C/[C@H](C[C@@H]1CCNC1=O)NC(=O)[C@H](CC1CCCCC1)NC(=O)OCc1ccccc1`, the results for the inhibition constant (Ki) (in [1]; on Procathepsin L [2]; on Cathepsin B) were 184 nM, 252 nM and 14400 nM, respectively. Besides, the inhibition entry (in data set [7]; in data set [4]; at Procathepsin L [5]) was “Active” in each case. Moreover, the inhibition result in data set [3] and in [6] was “inactive” each time. The compound also gave a CC50 in the data set on Huh-7 of 14500 nM.
As to `CC(=O)/C=C/[C@H](C[C@@H]1CCNC1=O)NC(=O)[C@H](CC(C)(C)C)NC(=O)OCc1ccccc1`, the Ki in [1] is 416 nM.
